Reference: ChEMBL document CHEMBL1177782, “Synthesis and biological evaluation of oxazole derivatives as T-type calcium channel blockers” (Bioorg Med Chem Lett, 2010)

How the values were obtained:
[1] = biological target: T1, Voltage-dependent T-type calcium channel subunit alpha-1G (Homo sapiens, UniProt O43497); test: Inhibition of T-type CaV3.1 channel expressed in HEK293 cells assessed as inhibition of calcium current at 10 uM by fluorescence based HTS FDSS6000 assay; format: cell-based
[2] = biological target: T1, Voltage-dependent T-type calcium channel subunit alpha-1G; test: Inhibition of T-type CaV3.1 channel expressed in HEK293 cells assessed as inhibition of calcium current by automated patch-clamp assay; format: cell-based

T1 sequence (O43497 whole entry): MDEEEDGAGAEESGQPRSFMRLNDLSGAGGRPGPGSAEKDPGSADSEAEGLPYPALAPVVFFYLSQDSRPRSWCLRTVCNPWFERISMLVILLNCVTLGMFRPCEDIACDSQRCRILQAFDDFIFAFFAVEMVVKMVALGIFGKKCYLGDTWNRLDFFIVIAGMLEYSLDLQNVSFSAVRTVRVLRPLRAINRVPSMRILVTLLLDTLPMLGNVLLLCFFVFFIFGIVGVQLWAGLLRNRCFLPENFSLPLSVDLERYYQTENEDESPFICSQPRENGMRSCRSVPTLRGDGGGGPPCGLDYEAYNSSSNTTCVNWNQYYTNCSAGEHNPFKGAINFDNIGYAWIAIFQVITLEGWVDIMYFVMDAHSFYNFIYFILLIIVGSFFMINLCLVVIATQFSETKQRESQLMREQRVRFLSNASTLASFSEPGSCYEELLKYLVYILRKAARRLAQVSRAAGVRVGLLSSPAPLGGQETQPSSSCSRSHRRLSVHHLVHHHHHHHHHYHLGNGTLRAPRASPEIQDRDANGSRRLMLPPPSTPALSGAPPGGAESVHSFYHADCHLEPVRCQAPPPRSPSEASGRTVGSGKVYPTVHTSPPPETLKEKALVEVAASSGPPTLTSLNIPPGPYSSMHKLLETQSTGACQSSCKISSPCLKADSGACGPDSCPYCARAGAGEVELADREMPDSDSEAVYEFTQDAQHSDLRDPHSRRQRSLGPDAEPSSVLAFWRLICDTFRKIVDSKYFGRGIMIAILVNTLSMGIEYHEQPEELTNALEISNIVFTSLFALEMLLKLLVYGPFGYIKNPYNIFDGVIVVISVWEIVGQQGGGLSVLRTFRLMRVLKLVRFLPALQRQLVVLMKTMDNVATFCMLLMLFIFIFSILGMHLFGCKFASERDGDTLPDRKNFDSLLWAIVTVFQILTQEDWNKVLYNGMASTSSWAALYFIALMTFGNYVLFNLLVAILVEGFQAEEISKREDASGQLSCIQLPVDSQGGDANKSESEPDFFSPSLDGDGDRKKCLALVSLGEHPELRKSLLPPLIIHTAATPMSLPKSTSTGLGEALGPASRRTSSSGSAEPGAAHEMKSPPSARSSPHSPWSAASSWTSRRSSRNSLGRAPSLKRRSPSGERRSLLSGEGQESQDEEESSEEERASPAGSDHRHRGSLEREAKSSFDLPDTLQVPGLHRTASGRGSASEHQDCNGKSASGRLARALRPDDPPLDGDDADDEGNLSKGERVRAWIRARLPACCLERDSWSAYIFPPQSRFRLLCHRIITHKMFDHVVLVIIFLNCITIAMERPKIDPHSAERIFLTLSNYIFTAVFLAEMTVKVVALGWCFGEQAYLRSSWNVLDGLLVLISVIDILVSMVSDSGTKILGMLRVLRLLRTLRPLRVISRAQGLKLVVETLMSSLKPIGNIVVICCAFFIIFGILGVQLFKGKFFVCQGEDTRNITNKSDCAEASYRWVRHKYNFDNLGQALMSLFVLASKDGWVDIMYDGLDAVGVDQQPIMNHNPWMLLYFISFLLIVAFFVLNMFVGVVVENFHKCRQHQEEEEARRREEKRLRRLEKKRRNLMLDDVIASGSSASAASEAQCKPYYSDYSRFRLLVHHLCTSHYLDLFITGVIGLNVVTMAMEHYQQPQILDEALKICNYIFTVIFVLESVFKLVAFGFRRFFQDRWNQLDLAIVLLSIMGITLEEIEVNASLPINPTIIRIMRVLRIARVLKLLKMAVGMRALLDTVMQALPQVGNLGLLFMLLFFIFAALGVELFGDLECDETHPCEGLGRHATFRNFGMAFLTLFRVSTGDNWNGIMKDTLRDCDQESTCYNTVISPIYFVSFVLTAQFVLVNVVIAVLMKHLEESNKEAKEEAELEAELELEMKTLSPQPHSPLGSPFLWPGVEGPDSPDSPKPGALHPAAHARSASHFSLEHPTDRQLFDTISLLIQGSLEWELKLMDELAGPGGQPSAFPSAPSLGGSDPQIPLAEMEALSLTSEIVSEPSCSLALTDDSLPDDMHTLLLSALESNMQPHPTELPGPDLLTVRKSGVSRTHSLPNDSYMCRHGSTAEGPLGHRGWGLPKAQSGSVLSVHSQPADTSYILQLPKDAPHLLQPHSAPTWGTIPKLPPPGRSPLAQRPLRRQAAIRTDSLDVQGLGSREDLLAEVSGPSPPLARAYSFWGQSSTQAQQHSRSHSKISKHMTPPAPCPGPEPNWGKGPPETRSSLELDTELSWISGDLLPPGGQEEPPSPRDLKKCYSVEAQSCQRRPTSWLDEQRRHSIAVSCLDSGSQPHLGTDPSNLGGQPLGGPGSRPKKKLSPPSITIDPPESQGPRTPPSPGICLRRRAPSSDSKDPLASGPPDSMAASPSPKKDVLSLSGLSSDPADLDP

Compound | inhibition [1] | IC50 [2]
CCCc1nc(-c2ccccc2)c(CNCCN2CCN(c3cccc(F)c3)CC2)o1 | 62.3% | 3350 nM
CCCc1nc(-c2ccccc2)c(CNCCN2CCN(c3ccccc3)CC2)o1 | 54.3% | 10200 nM
CCCc1nc(-c2ccccc2)c(CNCCCN2CCN(c3ccc(C(F)(F)F)cc3)CC2)o1 | 51.6% | 7250 nM
CCCc1nc(-c2ccccc2)c(CNCCCN2CCN(c3ccc(Cl)cc3)CC2)o1 | 63.2% | 1310 nM
CCCc1nc(-c2ccccc2)c(CNCCN2CCN(c3ccc(C)c(C)c3)CC2)o1 | 67.9% | 2220 nM
Cc1nc(-c2ccccc2)c(CNCCN2CCN(C(c3ccccc3)c3ccccc3)CC2)o1 | 57.3% | –
CCCc1nc(-c2ccccc2)c(CNCCN2CCN(c3ccc(C)cc3)CC2)o1 | 48.1% | –
CCCc1nc(-c2ccccc2)c(CNCCN2CCN(c3ccccc3Cl)CC2)o1 | 60.1% | 4370 nM
CCCc1nc(-c2ccccc2)c(CNCCCN2CCN(c3cccc(F)c3)CC2)o1 | 68.9% | 3030 nM
CCCc1nc(-c2ccccc2)c(CNCCN2CCN(c3ccc(C(F)(F)F)cc3)CC2)o1 | 58.7% | 1300 nM
CCCc1nc(-c2ccccc2)c(CNCCN2CCN(c3cccc(C(F)(F)F)c3)CC2)o1 | 56.3% | 1940 nM
CCCc1nc(-c2ccccc2)c(CNCCCN2CCN(c3cccc(C)c3)CC2)o1 | 47.8% | 1190 nM
CCCc1nc(-c2ccccc2)c(CNCCCN2CCN(c3ccccc3C(F)(F)F)CC2)o1 | 45% | –
CCCc1nc(-c2ccccc2)c(CNCCN2CCN(c3cccc(C)c3)CC2)o1 | 43.1% | –
CCCc1nc(-c2ccccc2)c(CNCCCN2CCN(c3ccccc3Cl)CC2)o1 | 64.7% | 2800 nM
CCCc1nc(-c2ccccc2)c(CNCCN2CCN(c3cccc(OC)c3)CC2)o1 | 40.2% | –
CCCc1nc(-c2ccccc2)c(CNCCCN2CCN(c3ccc(F)cc3)CC2)o1 | 62.5% | 3210 nM
CCCc1nc(-c2ccccc2)c(CNCCCN2CCN(c3ccc(OC)cc3)CC2)o1 | 42.1% | –
CCCc1nc(-c2ccccc2)c(CNCCN2CCN(c3ccc(C)cc3C)CC2)o1 | 64.3% | 2220 nM
CCCc1nc(-c2ccccc2)c(CNCCCN2CCN(c3ccccc3OC)CC2)o1 | 41% | –
CCCc1nc(-c2ccccc2)c(CNCCN2CCN(c3cccc(C)c3C)CC2)o1 | 66.7% | 1710 nM

Compound | inhibition [1] | IC50 [2]
CCCc1nc(-c2ccccc2)c(CNCCN2CCN(c3ccc(OC)cc3)CC2)o1 | 51.5% | 9200 nM
CCCc1nc(-c2ccccc2)c(CNCCN2CCN(c3ccc(F)cc3)CC2)o1 | 54.1% | 7080 nM
CCCc1nc(-c2ccccc2)c(CNCCCN2CCN(c3ccccc3C)CC2)o1 | 54.5% | 8750 nM
CCCc1nc(-c2ccccc2)c(CNCCN2CCN(c3cccc(Cl)c3)CC2)o1 | 51.2% | 1450 nM
CCCc1nc(-c2ccccc2)c(CNCCCN2CCN(c3ccc(C)c(C)c3)CC2)o1 | 54.6% | 3020 nM
CCCc1nc(-c2ccccc2)c(CNCCN2CCN(c3ccccn3)CC2)o1 | 48.1% | –
CCCc1nc(-c2ccccc2)c(CNCCN2CCN(c3ccccc3C)CC2)o1 | 51.3% | 4300 nM
CCCc1nc(-c2ccccc2)c(CNCCCN2CCN(c3cccc(OC)c3)CC2)o1 | 36.4% | –
CCCc1nc(-c2ccccc2)c(CNCCN2CCN(c3ccccc3F)CC2)o1 | 46.5% | –
CCCc1nc(-c2ccccc2)c(CNCCCN2CCN(c3ccc(C)cc3)CC2)o1 | 53.9% | 130000 nM
CCCc1nc(-c2ccccc2)c(CNCCCN2CCN(c3ccccc3F)CC2)o1 | 54.4% | 16100 nM
CCCc1nc(-c2ccccc2)c(CNCCN2CCN(C(c3ccccc3)c3ccccc3)CC2)o1 | 71.8% | 7470 nM
CCCc1nc(-c2ccccc2)c(CNCCN2CCN(c3ccc(Cl)cc3)CC2)o1 | 55.8% | 2820 nM
CCCc1nc(-c2ccccc2)c(CNCCCN2CCN(c3cccc(Cl)c3)CC2)o1 | 65.9% | 1750 nM
CCCc1nc(-c2ccccc2)c(CNCCCN2CCN(c3ccccc3)CC2)o1 | 43.7% | –
CCCc1nc(-c2ccccc2)c(CNCCN2CCN(c3ccccc3C(F)(F)F)CC2)o1 | 54.6% | 2100 nM
Cc1nc(-c2ccccc2)c(CNCCCN2CCN(c3ccc(Cl)cc3)CC2)o1 | 38.1% | –
CCCc1nc(-c2ccccc2)c(CNCCCN2CCN(c3cccc(C)c3C)CC2)o1 | 55.2% | 1780 nM
CCCc1nc(-c2ccccc2)c(CNCCN2CCN(c3ccccc3OC)CC2)o1 | 39.7% | –
CCCc1nc(-c2ccccc2)c(CNCCCN2CCN(c3cccc(C(F)(F)F)c3)CC2)o1 | 51.6% | 650 nM
